According to patent publication US20210214358A1, “CDK4/6 INHIBITOR AND PHARMACEUTICALLY ACCEPTABLE SALT AND POLYMORPH THEREOF AND USE THEREOF” (SHANGHAI HAIYAN PHARMACEUTICAL TECHNOLOGY CO., LTD., priority 2018, published 2021):
Converted amounts (≈) assume the structure as drawn. Where two headings read alike, the source gives them in different places.

Tests used:
[1] = Hygroscopicity test (DVS); type: physicochemical; conditions: for hygroscopicity (in words): 80% RH at 25° C.; for hygroscopic weight gain: humidity increases to 80% RH at 25° C.
Description: The Dynamic Vapor Sorption (DVS) curve: acquired on the DVS Intrinsic of Surface Measurement Systems. The relative humidity at […] is corrected with the deliquescence points of LiCl, Mg (NO3)2 and KCl.

[2] = Thermogravimetric analysis; type: physicochemical; conditions: under 50° C.-90° C.
Source text: TGA and DSC pattern: TGA and DSC pattern were collected on TA Q500/5000 thermogravimetric analyzer and TA Q200/2000 differential scanning calorimeter respectively.

[3] = Solubility experiment; type: physicochemical; conditions: for solubility in aqueous medium (summary): aqueous media of Table 6
[4] = Stability experiment: content and related substance by HPLC; type: physicochemical
Description: (§1) 1. Stability experiment of crystal form A and crystal form B-1 • (A) An appropriate amount of samples were weighed respectively and placed open at room temperature and under accelerated conditions (40° C./75% RH), on day 0, 7, 14, and 28 • (B) Crystal form A was placed in an oven at 60° C., on day 14, 32.
(§2) The content and related substance changes were detected by HPLC, and XRD was measured at the same time to investigate stability of the crystal forms.

[5] = Stability experiment: crystal form by XRD; type: physicochemical
Description: as §1, §2

[6] = biological target: T1, CDK6 (Homo sapiens, UniProt Q00534); assay: Kinase test in vitro (LANCE Ultra, Ulight-4EBP1); type: biochemical
T1 construct: purchased Invitrogen or Carna
Source text: (§3) Recombinant CDK1, CCNB1 and CDK9, and CCNT were purchased from BPS; CDK2, CCNA1, CDK4, CCND1 and CDK6, and CCND1 were purchased from Invitrogen; CDK4, CycD3 and CDK6, and CycD3 were purchased from Carna. Adenosine triphosphate (ATP) was purchased from Life tech. Substrate Ulight-4EBP1 and the corresponding detection antibody were purchased from Perkinelmer. LANCE Ultra system from Perkinelmer is used as the detection system.
(§4) In the kinase test, a compound to be tested was 1:3 diluted for 8 gradient points and added into a reaction plate, and then an appropriate amount of recombinase was added. A buffer [50 mM HEPES pH7.5, 10 mM MgCl2, 3 mM MnCl2, 1 mM EGTA, 0.01% Tween-20, 1 mM TCEP] containing ATP, Ulight-4EBP1 premix at a predetermined concentration was subsequently added, and the kinase reaction began at room temperature. A test solution pre-mixed with 10 mM EDTA and detection antibody was added after a suitable reaction time, and then the fluorescence value was read on Tecan infinite pro after reacting for 1 hour at room temperature. The IC50 was calculated using a four-factor model fitting in a XLfit software.

[7] = biological target: T2, CDK4 (Homo sapiens, UniProt P11802); assay: Kinase test in vitro (LANCE Ultra, Ulight-4EBP1); type: biochemical
T2 construct: purchased Invitrogen or Carna
Source text: as §3, §4

[8] = biological target: T3, CDK1 (Homo sapiens, UniProt P06493); assay: Kinase test in vitro (LANCE Ultra, Ulight-4EBP1); type: biochemical
T3 construct: purchased BPS
Source text: as §3, §4

[9] = biological target: T4, CDK2 (Homo sapiens, UniProt P24941); assay: Kinase test in vitro (LANCE Ultra, Ulight-4EBP1); type: biochemical
T4 construct: purchased Invitrogen
Source text: as §3, §4

[10] = 0.1 M HCl, calculated for crystal form I
[11] = Acetone, calculated for crystal form I
[12] = Acetonitrile, calculated for crystal form I
[13] = Ethanol, calculated for crystal form I
[14] = Ethyl acetate, calculated for crystal form I
[15] = H2O, calculated for crystal form I
[16] = Isopropanol, calculated for crystal form I
[17] = Methanol, calculated for crystal form I
[18] = Tetrahydrofuran, calculated for crystal form I
[19] = medium pH4.5, calculated for crystal form I
[20] = medium pH6.8, calculated for crystal form I
[21] = medium pH7.4, calculated for crystal form I
[22] = accelerated conditions 40° C./75% RH, open, on day 7
[23] = accelerated conditions 40° C./75% RH, open, on day 14
[24] = accelerated conditions 40° C./75% RH, open, on day 28
[25] = accelerated conditions 40° C./75% RH, open, on day 28, footnote: content obviously higher, measurement has errors
[26] = room temperature and accelerated conditions (40° C./75% RH), up to 28 days
[27] = room temperature, open, on day 7
[28] = room temperature, open, on day 14
[29] = room temperature, open, on day 28
[30] = room temperature, open, on day 28, footnote: content obviously higher, measurement has errors
[31] = accelerated conditions for 28 days

T2 sequence (P11802 whole entry): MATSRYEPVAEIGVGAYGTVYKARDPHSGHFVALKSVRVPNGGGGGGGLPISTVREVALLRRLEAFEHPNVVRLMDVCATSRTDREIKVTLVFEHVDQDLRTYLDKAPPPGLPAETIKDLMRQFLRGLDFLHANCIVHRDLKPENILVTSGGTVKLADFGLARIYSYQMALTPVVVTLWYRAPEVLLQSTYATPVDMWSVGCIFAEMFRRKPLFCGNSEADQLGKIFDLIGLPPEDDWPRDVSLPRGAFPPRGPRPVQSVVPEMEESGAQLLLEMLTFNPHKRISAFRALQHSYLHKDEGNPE
T2 sequence (P24385 whole entry partner): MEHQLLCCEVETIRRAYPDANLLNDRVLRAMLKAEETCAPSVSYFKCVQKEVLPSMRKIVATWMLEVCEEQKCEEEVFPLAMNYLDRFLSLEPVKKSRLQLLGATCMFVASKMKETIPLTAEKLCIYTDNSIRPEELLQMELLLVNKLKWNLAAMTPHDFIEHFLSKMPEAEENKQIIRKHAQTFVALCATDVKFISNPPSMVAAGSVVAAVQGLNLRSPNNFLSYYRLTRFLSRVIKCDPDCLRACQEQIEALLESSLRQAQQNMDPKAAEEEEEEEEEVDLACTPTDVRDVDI
T1 sequence (Q00534 whole entry): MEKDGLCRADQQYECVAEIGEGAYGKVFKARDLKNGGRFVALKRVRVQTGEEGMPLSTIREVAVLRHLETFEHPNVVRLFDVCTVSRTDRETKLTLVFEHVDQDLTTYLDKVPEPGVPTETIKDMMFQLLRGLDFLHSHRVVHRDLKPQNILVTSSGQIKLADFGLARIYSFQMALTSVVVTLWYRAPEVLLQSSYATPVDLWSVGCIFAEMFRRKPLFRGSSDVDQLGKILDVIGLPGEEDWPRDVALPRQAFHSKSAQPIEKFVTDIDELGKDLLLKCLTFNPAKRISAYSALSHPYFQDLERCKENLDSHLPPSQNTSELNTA
T1 sequence (P24385 whole entry partner): as the sequence (P24385 whole entry partner) above
T3 sequence (P06493 whole entry): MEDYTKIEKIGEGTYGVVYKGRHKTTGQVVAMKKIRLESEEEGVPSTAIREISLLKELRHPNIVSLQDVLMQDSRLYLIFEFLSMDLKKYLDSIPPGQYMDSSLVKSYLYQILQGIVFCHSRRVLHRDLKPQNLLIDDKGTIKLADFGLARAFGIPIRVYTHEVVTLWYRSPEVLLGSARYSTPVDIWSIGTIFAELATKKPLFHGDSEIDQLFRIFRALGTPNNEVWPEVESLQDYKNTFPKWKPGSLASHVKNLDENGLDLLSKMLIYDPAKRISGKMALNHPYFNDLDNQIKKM
T3 sequence (P14635 whole entry partner): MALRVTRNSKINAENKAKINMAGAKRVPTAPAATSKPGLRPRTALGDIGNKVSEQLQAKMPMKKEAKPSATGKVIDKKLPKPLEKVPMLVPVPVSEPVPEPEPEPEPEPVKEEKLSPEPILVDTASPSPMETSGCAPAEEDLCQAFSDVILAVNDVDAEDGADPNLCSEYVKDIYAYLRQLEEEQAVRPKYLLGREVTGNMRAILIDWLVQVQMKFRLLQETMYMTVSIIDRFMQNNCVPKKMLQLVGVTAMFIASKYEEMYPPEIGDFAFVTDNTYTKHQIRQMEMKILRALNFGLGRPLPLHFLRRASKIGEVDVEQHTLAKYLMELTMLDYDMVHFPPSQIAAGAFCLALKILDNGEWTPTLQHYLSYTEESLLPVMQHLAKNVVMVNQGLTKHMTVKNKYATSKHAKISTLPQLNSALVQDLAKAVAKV

| Structure (SMILES) | hygroscopicity (in words) [1] | hygroscopic weight gain [1] | Solubility [3, 10] | Solubility [3, 11] | Solubility [3, 12] | Solubility [3, 13] | Solubility [3, 14] | Solubility [3, 15] | Solubility [3, 16] | Solubility [3, 17] | Solubility [3, 18] | solubility in aqueous medium (summary) [3] | Solubility [3, 19] | Solubility [3, 20] | Solubility [3, 21] | Content [4, 22] | Impurity peak [4, 22] | Content [4, 23] | Impurity peak [4, 23] | Impurity peak [4, 24] | also measured |
| --- | --- | --- | --- | --- | --- | --- | --- | --- | --- | --- | --- | --- | --- | --- | --- | --- | --- | --- | --- | --- | --- |
| CCN1CCN(Cc2ccc(Nc3ncc4c(n3)-c3c(nc(C5CC5)n3C(C)C)C4)nc2)CC1 [Crystal form B-1] | has hygroscopicity | 6.88% | >40.10 mg/mL | >41.11 mg/mL | 0.28 mg/mL (≈ 0.611 mM) | 19.59 mg/mL (≈ 42.7 mM) | 0.02 mg/mL (≈ 0.0436 mM) | >40.85 mg/mL | 0.58 mg/mL (≈ 1.26 mM) | >45.19 mg/mL | 0.39 mg/mL (≈ 0.85 mM) | more than 25 mg/ml | >29.40 mg/mL | >27.40 mg/mL | >25.65 mg/mL | 94.36% | none | 95.19% | none | none | weight loss (TGA) [2]: about 7.4%; Content [4, 25]: 110.05%; Content ([4]; on day 0): 94.43%; Impurity peak ([4]; on day 0): none; chemical stability (in words) [4, 26]: chemical properties are stable; Content [4, 27]: 96.50%; Impurity peak [4, 27]: none; Content [4, 28]: 96.45%; Impurity peak [4, 28]: none; Impurity peak [4, 29]: none; Content [4, 30]: 107.12%; crystal form stability by XRD (in words) [5, 31]: crystal form is stable |
| Cc1c2c(nn1C)CCc1cnc(Nc3ccc(N4CCN(C)CC4)cc3)nc1-2 [compound 1, reference compound] |  |  |  |  |  |  |  |  |  |  |  |  |  |  |  |  |  |  |  |  | IC50 [6]: 53 nM; inhibitory activity against CDK6 (in words) [6]: strong inhibitory activity; IC50 [7]: 8 nM; inhibitory activity against CDK4 (in words) [7]: strong inhibitory activity; IC50 [8]: 93 nM; inhibitory activity against CDK1 (in words) [8]: strong inhibitory activity; IC50 [9]: 23 nM; inhibitory activity against CDK2 (in words) [9]: strong inhibitory activity |
| CCN1CCN(Cc2ccc(Nc3ncc4c(n3)-c3c(nc(C5CC5)n3C(C)C)C4)nc2)CC1 [Crystal form A] | slightly hygroscopic | 0.613% | >58.10 mg/mL | 0.23 mg/mL (≈ 0.502 mM) | 0.22 mg/mL (≈ 0.48 mM) | 6.97 mg/mL (≈ 15.2 mM) | 0.03 mg/mL (≈ 0.0654 mM) | 11.59 mg/mL (≈ 25.3 mM) | 0.26 mg/mL (≈ 0.567 mM) | 41.04 mg/mL (≈ 89.5 mM) | 0.15 mg/mL (≈ 0.327 mM) | more than 11 mg/ml | 14.30 mg/mL (≈ 31.2 mM) | 19.66 mg/mL (≈ 42.9 mM) | 17.86 mg/mL (≈ 38.9 mM) | 100.97% | none | 104.46% | none | none | chemical stability (in words) ([4]; 60° C., 14 and 32 days): chemical properties are stable; Content [4, 25]: 113.75%; Content ([4]; on day 0): 103.14%; Impurity peak ([4]; on day 0): none; Content ([4]; oven at 60° C., on day 14): 106.2%; Impurity peak ([4]; oven at 60° C., on day 14): none; Content ([4]; oven at 60° C., on day 32): 104.5%; Impurity peak ([4]; oven at 60° C., on day 32): none; chemical stability (in words) [4, 26]: chemical properties are stable; Content [4, 27]: 103.82%; Impurity peak [4, 27]: none; Content [4, 28]: 104.20%; Impurity peak [4, 28]: none; Impurity peak [4, 29]: none; Content [4, 30]: 116.27%; crystal form stability by XRD (in words) [5, 31]: crystal form is stable; crystal form stability by XRD (in words) ([5]; high temperature of 60° C. for 14 days and 32 days): not transformed |

Continued, in another order:

| hygroscopicity (in words) [1] | hygroscopic weight gain [1] | Solubility [3, 10] | Solubility [3, 11] | Solubility [3, 12] | Solubility [3, 13] | Solubility [3, 14] | Solubility [3, 15] | Solubility [3, 16] | Solubility [3, 17] | Solubility [3, 18] | solubility in aqueous medium (summary) [3] | Solubility [3, 19] | Solubility [3, 20] | Solubility [3, 21] | Content [4, 22] | Impurity peak [4, 22] | Content [4, 23] | Impurity peak [4, 23] | Impurity peak [4, 24] | Structure (SMILES) | also measured |
| --- | --- | --- | --- | --- | --- | --- | --- | --- | --- | --- | --- | --- | --- | --- | --- | --- | --- | --- | --- | --- | --- |
| very hygroscopic | 30.74% | >44.74 mg/mL | 11.47 mg/mL (≈ 25 mM) | >16.64 mg/mL | >41.86 mg/mL | 11.48 mg/mL (≈ 25 mM) | >38.91 mg/mL | >42.89 mg/mL | >30.41 mg/mL | 39.09 mg/mL (≈ 85.2 mM) |  | >35.09 mg/mL | >33.57 mg/mL | >38.78 mg/mL |  |  |  |  |  | CCN1CCN(Cc2ccc(Nc3ncc4c(n3)-c3c(nc(C5CC5)n3C(C)C)C4)nc2)CC1 [Crystal form K-1] | solubility ranking of the crystal forms (in words) [3]: the best solubility; Solubility ([3]; thermodynamic from solid, all solvents and media of Table 6, read-out: solubility in organic solvents and aqueous medium (summary)): 11 to 45 mg/mL (≈ 24 to 98.1 mM) |
| has hygroscopicity | 8.84% |  | >5 mg/mL | >1 mg/mL | >50 mg/mL | >10 mg/mL | 0.36 mg/mL (≈ 0.785 mM) | >20 mg/mL | >100 mg/mL | >100 mg/mL |  | 9.66 mg/mL (≈ 21.1 mM) | 2.85 mg/mL (≈ 6.21 mM) | 1.08 mg/mL (≈ 2.35 mM) |  |  |  |  |  | CCN1CCN(Cc2ccc(Nc3ncc4c(n3)-c3c(nc(C5CC5)n3C(C)C)C4)nc2)CC1 [Crystal form I] | solubility ranking of the crystal forms (in words) [3]: the lowest solubility; Solubility ([3]; 0.1 M HCl, simulated gastric fluid, thermodynamic from solid, 0.1 M HCl, calculated for crystal form I, read-out: Solubility): 34.7 mg/mL (≈ 75.7 mM); Solubility ([3]; 50% acetonitrile, aqueous with cosolvent or surfactant or cyclodextrin, thermodynamic from solid, 50% Acetonitrile, calculated for crystal form I, read-out: Solubility): > 25 mg/mL; Solubility ([3]; dimethyl sulfoxide, organic solvent or mixture, thermodynamic from solid, Dimethyl sulfoxide, calculated for crystal form I, read-out: Solubility): > 6.6 mg/mL; Solubility ([3]; methyl tert-butyl ether, organic solvent or mixture, thermodynamic from solid, Methyl tert-butyl ether, calculated for crystal form I, read-out: Solubility): > 2 mg/mL; Solubility ([3]; n-heptane, organic solvent or mixture, thermodynamic from solid, N-heptane, calculated for crystal form I, read-out: Solubility): < 2 mg/mL |
